For experiment [1], the system named is thrombin. The following applies: cited from earlier work.
Experiment [2] addresses T1, human thrombin (Homo sapiens, UniProt P00734).
T1 construct: human thrombin
Briefly: KI value for thrombin (Lineweaver and Burk, Chromozym TH). The format is biochemical. The following applies: inhibitor conc. approx. IC50, Chromozym TH 0.7-45×10^-5 mol/l, read-out: Thrombin inhibition KI. As to the method: Determination of the KI value for thrombin:
The KI values for the compounds investigated were determined using the abovementioned thrombin solution. To do this, thrombin was incubated with a concentration of inhibitor which approximately corresponded to the IC50 value determined in the abovementioned test.

Experiment [3] relates to thrombin. Put plainly: Activity with respect to inhibition of thrombin / antithrombotic activity, general statements. The format is biochemical. The following applies: relative to the glycine compound. The source says:
The inhibitors according to the invention are examined according to various criteria to assess their activity, preferably these are the determination of the Ki value, the IC50 value or the partial thromboplastin time (PTT) in vivo and in vitro.

Experiment [4] concerns the target T1, human thrombin. Put plainly: IC50 value of the thrombin inhibition (Chromozym TH, pNA release at 405 nm). In kind it is biochemical. The following applies: 0.1M tris-HCl/0.15 M NaCl pH 8.2, 1 h preincubation, substrate Chromozym TH 5×10^-5 M. As to the method:
Determination of the IC50 value of the thrombin inhibition:
The compounds were incubated with human thrombin in 0.1M tris-HCl buffer/0.15 M NaCl pH 8.2 in increasing concentrations.

Data on four molecules can be found in patent US5274098A, “Amidinophenylalanine derivatives, process for their preparation, their use and compositions containing them” (Behringwerke Aktiengesellschaft, priority 1991, dated 1993).

Regarding `CC1CNc2c(cccc2S(=O)(=O)N[C@@H](CCCNC(=N)N)C(=O)N2CC[C@@H](C)C[C@@H]2C(=O)O)C1` (stereo partly shown) [MD 805, monohydrate], the “type of thrombin inhibition (prior art, in words)” value in experiment [1] is given as “competitive specific thrombin inhibitor”.

Turning to `N=C(N)c1ccc(C[C@@H](NC(=O)NNS(=O)(=O)c2ccc3ccccc3c2)C(=O)N2CCCCC2)cc1` [Nas--AGly--Aph--Pip, Beta-naphthylsulfonyl-azaglycyl-D-p-amidinophenylalanylpiperidide], the Ki in experiment [2] was 2.6 nM. Moreover, in experiment [3], the “exceeds the activity of the glycine compound by a factor” value turned out to be 5. In experiment [4], this molecule registered an IC50 of 1.3 nM.

For the molecule `Cc1c(C)c(S(=O)(=O)NNC(=O)N[C@H](Cc2ccc(C(=N)N)cc2)C(=O)N2CCCCC2)c(C)c2c1OC(C)(C)CC2` [Pmc--AGly--Aph--Pip, Pmc-Azaglycyl-D-p-amidinophenylalanylpiperidide], the Ki in experiment [2] was found to be 0.092 nM.

Turning to `Cc1c(C)c(S(=O)(=O)NCC(=O)NC(Cc2ccc(C(=N)N)cc2)C(=O)N2CCCCC2)c(C)c2c1OC(C)(C)CC2` (stereo not shown) [Pmc--Gly--Aph--Pip, reference compound], the Ki in experiment [2] was 1.3 nM. The molecule further gave an IC50 in experiment [4] of 1.4 nM.

As usually defined, the Ki is the equilibrium dissociation constant of an inhibitor or competing ligand from its target. The IC50 is the midpoint of a concentration-inhibition curve. Higher therefore signals weaker potency in that assay.
